In article PMC12867150, “A fungi-derived cyclic peptide enhances Th9-mediated antitumor immunity by targeting ZAP70 and SREBP1” (The Journal of Clinical Investigation, 2025):

Assays:
[1] = tested on: Th9 cells; experiment: Screening of 65 natural compounds for IL-9 production by Th9 cells (Figure 1B); format: cell-based, mouse; settings: 10 μM; result in words
Text: To identify natural small molecules that enhance the antitumor potential of Th9 cells, we constructed a chemically and structurally defined small-molecule library derived from endophytic fungi isolated from G. lucidum and Periplaneta americana (Supplemental Table 1; supplemental material available online with this article; https://doi.org/10.1172/JCI196907DS1). This library comprised 65 structurally diverse metabolites classified into 11 distinct scaffold families, with each compound structurally elucidated via NMR spectroscopy and verified against previously reported spectral data. To functionally evaluate the immunomodulatory potential of these compounds, we systematically screened the library for their ability to promote Th9 cell differentiation, assessed by intracellular IL-9 expression using flow cytometry (Figure 1, A and B).
Naive CD4^+ T cells were isolated from the spleens of C57BL/6J or CD45.1^+ OT-II mice using the MojoSort Mouse CD4 Naive T Cell Isolation Kit (BioLegend, catalog 480040), following the manufacturer’s protocol. Purified cells were cultured in RPMI-1640 medium supplemented with 10% FBS, 1% penicillin-streptomycin, and 0.1% β-mercaptoethanol (Gibco, catalog 21985023). […]

[2] = tested on: phosphorylated ZAP70; experiment: Flow cytometry of phosphorylated ZAP70 in human Th9 cells (Figure 8F); format: cell-based; settings: result in words
Experimental: For Th9 polarization, cultures were supplemented with IL-4 (10 ng/mL, PeproTech, catalog AF-200-04), TGF-β (1 ng/mL), and neutralizing anti–IFN-γ monoclonal antibody (10 μg/mL, clone B27, BioXcell, catalog BE0245). After 3 days of initial culture, cells were either collected for downstream assays or continued in extended culture with refreshed cytokines to maintain lineage commitment without antibodies. Th9 cells were collected at days 4, 5, and 6 for subsequent in vitro assays. For adoptive transfer studies, day 4–cultured Th9 cells were washed and prepared for intravenous injection.
Details regarding staining panels (human and mouse), reagents (including clones and catalog numbers), acquisition settings, compensation/controls, and analysis procedures are provided in Supplemental Methods.
MH9A4, Biolegend, Cat. No. 507605, PE/Cy7, clone MH9A4, Biolegend, Cat. No. […]
clone Mab11, Biolegend, Cat. No. 502908), Perforin (APC, clone dG9, Biolegend, Cat.
Flow cytometric acquisition was performed using a BD Fortessa or Cytek Aurora cytometer. Data were analyzed with FlowJo software (v10.8.1 or newer). Fluorescence compensation, isotype-matched controls, and fluorescence-minus-one (FMO) controls were applied as appropriate for multicolor panel validation.
Cells were washed twice with PBS and lysed in 1 × lysis buffer (NCM, Cat. No. […]

With anteiso-C15 Leu7 surfactin [EpA] the “Th9 polarization in screen” value [1] was “most potent enhancer of Th9 polarization” and the “ZAP70 phosphorylation, human Th9” value [2] was “increased phosphorylation of ZAP70”.
